According to paper PMC2731040 (BMC Clinical Pharmacology, 2009):
“Also recorded” adds a separate entry of the source.

How the values were obtained:
[1] = Plasma pharmacokinetics of cocaine and benzoylecgonine after IV cocaine-d5 infusion; conditions: for Cmax: cocaine-d5 IV 0.5 mg/kg over 10 min then 2 mg/kg over 4 h; for Cmax / (t1/2)z / AUC (0-∞) / AUC(0-t) / AUCext / Tmax / λz: mean ± SD
Description: In this open-label, unblinded study, a 0.5 mg/kg intravenous loading dose of cocaine-d5 HCl over 10 minutes was followed by a slow 4 hour constant rate cocaine-d5 infusion of 2.0 mg/kg(~175 mg for a 70 kg person). […] When this method of cocaine administration is utilized, a larger dose can be given over a longer period of time and approximates frequently reported patterns of cocaine use. This method also allowed for close monitoring and termination of the infusion if untoward psychiatric or cardiovascular effects occurred.
For both cocaine infusions (sessions 1 and 2), plasma samples for cocaine and metabolites (~6 ml) were obtained 5 minutes before and 10 minutes, 0.5, 1, 1.5, 2, 4, 4.25, 4.5, 5, 6, 8, 12, 21, 27, 33, and 45 hours after each cocaine infusion.
Plasma concentrations of cocaine and benzoylecgonine were measured in our laboratory using a method we developed. The method allows for simultaneous determination of cocaine, benzoylecgonine, and deuterium-labeled analogs [cocaine-d5 and benzoylecgonine-d5 (BE-d5)] by using combined gas chromatography-mass spectrometry (GC-MS). Differently labeled stable isotope analogs were used as internal standards. The calibration curves were from 5 to 2,000 ng/mL for cocaine-d5 and 10 to 2,000 ng/mL for BE-d5. Lower limits of quantitation (LLOQ) were 5 ng/ml (cocaine-d5) and 10 ng/ml (BE-d5) in plasma. Qualitative urine benzoylecgonine was measured by Northwest Toxicology Laboratory, Salt Lake City, Utah, using the Roche Diagnostics Online® immunoassay.
The plasma concentration-time profiles for cocaine and benzoylecgonine (BE) were analyzed by non-compartmental methods, utilizing the pharmacokinetic data analysis program WinNonlin Pro, version 3.0 [31].
The area under the plasma concentration-time curve was calculated using the linear trapezoidal rule up to the maximum plasma concentration, and thereafter using the logarithmic trapezoidal rule to the last measurable plasma concentration. The remaining area was extrapolated to infinity by dividing the last appropriate plasma concentration by the terminal exponential rate constant.
Maximum plasma concentration (Cmax) and time of maximum plasma concentration (Tmax) were determined by visual inspection of data. "Terminal" exponential half-life [(t1/2)z] was calculated from log-linear regression of "terminal" exponential phase data points. Cocaine clearance (CL) and terminal exponential volume of distribution (Vz) were calculated by conventional equations: CL = [Dose/Area under the curve (AUC)0-∞] and Vz = CL/λz, respectively, where λz ("terminal" exponential rate constant) = ln2/(t1/2)z. […] Amount of BE in urine samples was calculated by multiplying concentration by volume.

[2] = Selegiline and metabolites excreted in 24 hour urine collections; format: in vivo, human; parameters: unit not given here; conditions: Mean ± SD, N = 12
Description: (§1) When subjects were in the GCRC, all urine was collected and volumes recorded. Following each cocaine infusion, urine was collected in fractions from 0 to 24, 24 to 48, and 48 to 72 hours (timed from the start of the infusion). Samples were then frozen at -70°C until analyzed. […] A qualitative screen for drugs of abuse was obtained every other day for the entire study period.
(§2) All analyses employed a one-factor repeated-measures analysis of variance (ANOVA), with all parameters analyzed as their logarithmic (natural) transforms. If a day effect was found between days 9, 11, 12, and 13, a Tukey multiple comparison procedure was employed posthoc to compare the days in pairs. A test for linear trend was included. All probability estimates presented are based on the Type III sums of squares.

[3] = test system: nondependent cocaine-experienced subjects; assay: Physiologic measures during cocaine challenge sessions; format: in vivo, human; conditions: session 2 vs session 1; peak effects and effects across time
Description: Heart rate, systolic and diastolic blood pressure were measured using a cardiovascular monitor (Dinamap by Critikon, Vital Signs Monitor 1846 SX). Rate pressure product was calculated as the product of systolic blood pressure and heart rate. Respiration rate was measured by counting the number of inhalations per minute. These vital signs were determined with the patient in a supine position for at least 10 minutes.
(§3) Heart rate, blood pressure, respiration rate, skin and core temperature were recorded at specific times during the study. During infusions, measures were obtained pre-dose and at 0.17, 0.5, 0.75, 1, 1.5, 2, 2.5, 3, 3.5, 4, 4.25, 4.5, 5, 6, 8, 12, 18, 24, 36, 48, and 72 hours after dosing. The electrocardiogram was monitored continuously during the infusion and for 4 hours after the termination of the intravenous cocaine infusion. EKG tracings were recorded at each data collection point.
(§4) The time courses of physiologic and subjective data were analyzed by repeated measures analysis of variance (ANOVA). Treatment conditions (Sessions 1 and 2) and observation times (hours post-dose) were considered within-subject factors. Change scores (post-dose minus pre-dose values) were used in most analyses. Raw score were used where indicated. After a significant F test, pairwise comparisons of treatment conditions were performed using the least squares means analysis. Peak effects within a session were determined for each subject and each variable and analyzed using a one-factor repeated measures ANOVA. Effects were considered statistically significant at p = 0.05. Data were adjusted for sphericity using the Huynh-Feldt adjustment factor. Huynh-Feldt-corrected significance values are reported.

[4] = test system: nondependent cocaine-experienced subjects; assay: Subjective measures (verbal ratings, visual analog scales, POMS) during cocaine challenge sessions; format: in vivo, human
Description: Verbal ratings of global intoxication and craving (on a scale of 0 to 100) were obtained at the same time points as the physiologic measures, with 0 representing no drug effect and 100 representing the highest level of intoxication or craving.
Visual analog scales were used to rate the degree of drug liking by moving an arrow along a 10 cm line marked at opposite ends as 0 (not at all) and 100 (extreme) using a hand-held computer (Tandy 102). Items rated on the visual analog scale included "good drug effect" and "bad drug effect," and were obtained prior to cocaine infusion and at 0.17, 0.5, 0.75, 1, 1.5, 2, 2.5, 3, 3.5, 4, 4.25, 4.5, 5, 6, and 8 hours after dosing.
The Profile of Mood States (POMS) assessed mood changes in Anger, Confusion, Fatigue, Tension, and Vigor on a scale from 0 to 4, where 0 indicated "no effect" and 4 indicates "extremely strong". Ratings were obtained prior to cocaine infusion and at 1, 3, and 6 hours after dosing.
as §4

noradrenergic tone = assay: Urinary MHPG-S excretion (surrogate for noradrenergic tone, MAO-A metabolite); format: in vivo, human
Description: The interactions between MAO-A inhibitors and cocaine administered are largely unexplored. […] Therefore, measurement of dopaminergic and noradrenergic tone may be important in predicting toxic events. We measured dopaminergic tone with the surrogate marker of plasma HVA, the major brain metabolite of dopamine, and serum levels of prolactin, a hormone whose secretion is inhibited by dopamine. The surrogate for noradrenergic tone was urine concentrations of MHPG-S. In order to assess the degree of MAO-A and MAO-B inhibition, we assayed concentrations of a substrate of MAO-B, phenylethylamine (PEA). PEA would be expected to increase with MAO-B inhibition, and concentrations of MHPG-S, which is a metabolite of norepinephrine produced by MAO-A primarily in the brain [20], would be expected to decrease.
as §1
Concentrations of MHPG-S in urine were determined using LC-MS/MS [29]. […] As urinary creatinine excretion is directly related to glomerular filtration and renal blood flow, and urinary creatinine excretion is relatively constant (~1 gm/day), it can be used to estimate concentrations of a substance during a 24 hour urine collection period. Using ratios of the concentrations of MHPG-S to creatinine obtained from assays of these spot urine samples, MGPG-S concentrations during the outpatient period (when subjects would be unlikely to provide accurate 24 hour urine collections) were compared to those from urine samples on inpatient days.

[5] = test system: nondependent cocaine-experienced subjects; assay: Adverse events and cardiovascular safety monitoring; format: in vivo, human; conditions: STS 6 mg/24 hours
Description: as §3

[6] = Trough plasma concentrations of selegiline and metabolites; format: in vivo, human; conditions: days 9, 11, 12, and 13 of STS; p for linear trend <0.001 (l-methamphetamine) and <0.01 (l-amphetamine)
Description: as §2

[7] = Pre Selegiline (session 1), plasma
[8] = With Selegiline (session 2), plasma
[9] = 0–24 hours after cocaine (day 11), STS 6 mg/24 hours
[10] = 24–48 hours after cocaine (day 12), STS 6 mg/24 hours
[11] = 48–72 hours after cocaine (day 13), no patch applied at 9 AM on day 14

In the case of `CN1[C@H]2CC[C@@H]1[C@@H](C(=O)O)[C@@H](OC(=O)c1ccccc1)C2` [Benzoyl-ecgonine, benzoylecgonine], the Cmax [1, 7] is reported as 1045 ± 180 ng/mL, the “(t1/2)z” value [1, 7] is reported as 8.63 ± 5.36 h and the “AUC (0-∞)” value [1, 7] is reported as 13600 ± 3820 ng·h/mL. For the same compound, the “AUC(0-t)” value [1, 7] was 13000 ± 3030 ng·h/mL, the AUCext [1, 7] was 3.45 ± 6.45% and the Tmax [1, 7] was 4.79 ± 0.50 h. For the same compound, the λz [1, 7] was 0.0928 ± 0.023 h⁻¹, the “(t1/2)z” value [1, 8] was 7.52 ± 1.82 h and the “AUC (0-∞)” value [1, 8] was 13200 ± 4180 ng·h/mL. The “AUC(0-t)” value [1, 8] was 12900 ± 3760 ng·h/mL, the AUCext [1, 8] was 2.21 ± 2.24% and the Tmax [1, 8] was 5.04 ± 0.65 h. For the same compound, the λz [1, 8] was 0.0971 ± 0.024 h⁻¹, the Cmax ([1]; With Selegiline (session 2, after one week STS 6 mg/24 hours), plasma) was 957 ± 184 ng/mL and the “BE AUC relative to that of cocaine” value ([1]; plasma, after IV cocaine-d5 infusion) was “approximately 5.9 times”.
For `C#CCNC(C)Cc1ccccc1` (centres unmarked) [Desmethylselegiline, n-desmethylselegiline], the “Excreted in the 24 Hour Urine” value [2, 9] was 0.184 ± 0.128, the “Excreted in the 24 Hour Urine” value [2, 10] was 0.188 ± 0.162 and the “Excreted in the 24 Hour Urine” value [2, 11] was 0.082 ± 0.086.
For `C#CCN(C)[C@H](C)Cc1ccccc1` [Selegiline, selegiline], the “Effect of selegiline on cocaine or BE plasma pharmacokinetics” value ([1]; after removal of the two outliers, STS 6 mg/24 hours for one week) was “No effect”, the “Excreted in the 24 Hour Urine” value [2, 9] was 0.109 ± 0.073 and the “Excreted in the 24 Hour Urine” value [2, 10] was 0.145 ± 0.138. For the same compound, the “Excreted in the 24 Hour Urine” value [2, 11] was 0.063 ± 0.097, the “Effect of selegiline on cocaine-induced physiological effects” value [3] was “Neither peak effects (Table 3) nor physiological effects across time were affected” and the “Verbal ratings of craving, second session vs first” value ([4]; between 1.5 and 4.5 hours after cocaine, condition × time significant) was “lower”. For the same compound, the “POMS anger, tension and total score scales across time, second session vs first” value ([4]; second cocaine session (after selegiline)) was “significantly different (lower)”, the “Total Amount of MHPG-S Excreted in the 24 Hour Urine Collection” value (“Total Amount of MHPG-S Excreted” for short) (noradrenergic tone; Day 4–5, 0–24 hr Postselegiline) was 1.43 ± 0.40 mg and the “Total Amount of MHPG-S Excreted” value (noradrenergic tone; Day 11–12 Selegiline Phase 1st Day After Cocaine) was 1.09 ± 0.23 mg. The “Total Amount of MHPG-S Excreted” value (noradrenergic tone; Day 12–13 Selegiline Phase 2nd Day After Cocaine) was 1.07 ± 0.40 mg, the “Total Amount of MHPG-S Excreted” value (noradrenergic tone; Day 13–14 Selegiline Phase 3rd Day After Cocaine, no patch applied at 9 AM on Day 14) was 1.01 ± 0.33 mg and the Adverse events ([5]; cocaine-d5 IV 2.5 mg/kg over 4 hours, 2.5 mg/kg) was “One subject reported erectile dysfunction; also recorded: One subject experienced anxiety and one reported insomnia”. The “Cardiovascular adverse effects (orthostatic vital signs and cardiovascular monitoring)” value ([5]; selegiline maintenance phase) was “no adverse cardiovascular effects”.
For `CN[C@H](C)Cc1ccccc1` [l-Methamphetamine, l-methamphetamine], the “Excreted in the 24 Hour Urine” value [2, 9] was 6.26 ± 2.28, the “Excreted in the 24 Hour Urine” value [2, 10] was 8.51 ± 5.69 and the “Excreted in the 24 Hour Urine” value [2, 11] was 4.83 ± 1.55. For the same compound, the “Trough plasma concentrations over time” value [6] was “increased over time”.
